{
  "source": "patent US20240398783A1",
  "about": "“Compounds and Pharmaceutical Compositions Comprising Inhibitors of Amyloid Peptide Interactions with Glycosaminoglycans, Methods of Treatment and Use Thereof” (Gismo Therapeutics, Inc., priority 2021, published 2024)",
  "note": "pIC50: −log10 of the molar value. Structures can show the parent of a compound that is named as a salt.",
  "data": [
    {"target": "T1, SAA binding to purified THP-1 cell membranes (Homo sapiens, UniProt P0DJI8)", "T1 sequence (P0DJI8 19-122)": "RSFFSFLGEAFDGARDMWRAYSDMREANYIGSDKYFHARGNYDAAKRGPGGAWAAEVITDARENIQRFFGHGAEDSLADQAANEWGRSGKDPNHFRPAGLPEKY", "assay": "Inhibition of SAA binding to purified cell membranes (ELISA)", "details": "purified cell membranes (THP-1 per Example 54), hydrochloride, read-out: Serum Amyloid A/Membrane Activity (IC-50)", "experimental": "(§1) THP-1 (human acute monocyte leukemia cell line; ATCC cat. no. TIB-202) cell membranes were prepared by differential centrifugation as follows. THP-1 cell was grown in RPMI 1640 media (GIBCO Cat. No. 21875034, supplemented with 10% FBS) at 37 degree Celsius 5% CO2 atmosphere, harvested, and stored at −80 degree Celsius. Frozen THP-1 cells were homogenized in HEPES-Buffered sucrose (0.32M sucrose, 4 mM HEPES pH7.4, protease inhibitors) with a motor driven glass-teflon homogenizer. After removing nuclear and cell debris by centrifugation of homogenates at 1,000×g for 10 min at 4 degree Celsius, post-nuclear supernatant was centrifuged at 10,000×g for 15 minutes to remove mitochondrial fraction. Resulting supernatant was centrifuged at 100,000×g for 30 minutes to yield the crude membrane pellet. Crude membrane pellet was re-suspended in 0.32M sucrose, then centrifuged again at 100,000 xg for 30 minutes to yield washed membrane pellet. Membrane pellet was resuspended in sterile PBS (pH7.4), quickly frozen and kept in aliquots at −80 degrees Celsius. This preparation contains mostly cell membranes. Protein concentration was measured with BCA protein assay kit (Pierce Cat. No. 23227). The binding assay was performed as described in Example 48, with the following modifications. Following to coating the plates with purified human THP-1 cell membranes at 0.01 mg/ml concentration, plates were washed and blocked with 2% milk as described. The compounds were dissolved in DMSO at 10 mM final concentration and further diluted prior to assay. DMSO concentration in the screening well was up to 2%. Individual compounds were co-incubated with SAA on plates coated with cell membranes. SAA from PreProtech (NJ, USA, Cat. No. 300-53) was dissolved in DMSO, quickly frozen and kept in aliquots at −80 degrees Celsius. SAA dissolved in Tris Buffer (pH 6.5, supplemented with BSA, 0.1%) was added to the ELISA plate (100 μl per well) and incubated for 2 hours at RT with gentle shaking. Following the incubation, the plate was washed with de-ionized water and three times with TBS (pH 6.5) plus Tween. Bound SAA was detected by Anti-SAA Monoclonal Antibody (R&D System Cat. No. MAB30192, followed by secondary anti-IgG antibody conjugated to HRP (R&D System, Cat. No. HAF007). Antibody was diluted in TBS antibody buffer (pH6.5 supplemented with 1% BSA). Following each incubation with antibody, the plate was washed with de-ionized water and three times with TBS (pH6.5) wash buffer containing 0.1% Tween. Following to color development with TMB, as described in Example 49, the Optical Density of the samples was measured at 450 nm using an ELISA plate reader. Following color development, the % inhibition compared to control (no compound, DMSO control) for every compound was determined.\n(§2) For each compound IC-50 value is shown in μM (micromolar). In some cases IC-50 was not measured and % inhibition at 30 μM compound concentration is shown instead. […] All assays were done on 96-well plates in duplicates and experiments were repeated at least twice. In the Table, the following abbreviations are used: A: compounds that inhibited>30% at 30 μM concentrations; B: compounds that inhibited<30% at 30 μM concentrations; NT: compounds for which inhibition curve was not obtained.", "values": [
      {"compound": "C/C(=N\\Nc1ncnc2cc(Cl)ccc12)c1ccc(-n2cc(C)nc2C)nc1", "note": "[Compound 27, (E)-7-chloro-4-(2-(1-(6-(2,4-dimethyl-1H-imidazol-1-yl)pyridin-3-yl)ethylidene)hydrazineyl)quinazoline hydrochloride]", "pIC50": 4.85}
    ]},
    {"target": "T1, SAA binding to purified THP-1 cell membranes", "assay": "Inhibition of SAA binding to purified cell membranes (ELISA)", "details": "purified cell membranes (THP-1 per Example 54), read-out: Serum Amyloid A/Membrane Activity (IC-50)", "experimental": "as §1, §2", "values": [
      {"compound": "C/C(=N\\Nc1ncnc2cc(Cl)ccc12)c1ccc(-n2cc(C)nc2C)nc1", "note": "[Compound 18, (E)-7-chloro-4-(2-(1-(6-(2,4-dimethyl-1H-imidazol-1-yl)pyridin-3-yl)ethylidene)hydrazineyl)quinazoline phosphoric acid salt]", "pIC50": 4.62},
      {"compound": "Cc1cc(-n2ccnc2)ccc1/C=N/Nc1ccnc2cc(Cl)ccc12", "note": "[Compound 1, (E)-4-((E)-(4-(1H-imidazol-1-yl)-2-methylbenzylidene)hydrazono)-7-chloro-1,4-dihydroquinoline]", "pIC50": 4.91},
      {"compound": "C/C(=N\\Nc1ncnc2cc(F)ccc12)c1ccc(-n2cnc(C)c2C)nc1", "note": "[Compound 21, (E)-4-(2-(1-(6-(4,5-dimethyl-1H-imidazol-1-yl)pyridin-3-yl)ethylidene)hydrazineyl)-7-fluoroquinazoline]", "pIC50": 4.32},
      {"compound": "Clc1ccc2c(Nc3ccc(-n4ccnc4)nc3)ncnc2c1", "note": "[Compound 41, N-(6-(1H-imidazol-1-yl)pyridin-3-yl)-7-chloroquinazolin-4-amine]", "pIC50": 4.88},
      {"compound": "C/C(=N\\Nc1nncc2cc(Cl)ccc12)c1ccc(-n2cc(C)nc2C)nc1", "note": "[Compound 24, (E)-6-chloro-1-(2-(1-(6-(2,4-dimethyl-1H-imidazol-1-yl)pyridin-3-yl)ethylidene)hydrazineyl)phthalazine]", "pIC50": 5.09},
      {"compound": "CC(=NNc1ncnc2cc(Cl)ccc12)c1ccnc(-n2cnc(C)c2C)c1", "note": "[Compound 28, 7-chloro-4-(2-(1-(2-(4,5-dimethyl-1H-imidazol-1-yl)pyridin-4-yl)ethylidene)hydrazineyl)quinazoline]", "pIC50": 4.64}
    ]},
    {"target": "T1, SAA binding to purified THP-1 cell membranes", "assay": "Inhibition of SAA binding to purified cell membranes (ELISA)", "details": "read-out: Serum Amyloid A/Membrane Activity (IC-50), purified cell membranes (THP-1 per Example 54)", "experimental": "as §1, §2", "values": [
      {"compound": "CC(=NNc1ccnc2cc(Cl)ccc12)c1ccc(-n2ccnc2)cc1", "note": "[Compound 36, 4-(2-(1-(4-(1H-imidazol-1-yl)phenyl)ethylidene)hydrazineyl)-7-chloroquinoline phosphate]", "pIC50": 4.82},
      {"compound": "Clc1ccc2c(Nc3ccc(-n4cncn4)nc3)ccnc2c1", "note": "[Compound 44, N-(6-(1H-1,2,4-triazol-1-yl)pyridin-3-yl)-7-chloroquinolin-4-amine]", "pIC50": 4.94},
      {"compound": "COc1cc(Nc2nncc3cc(Cl)ccc23)cnc1-n1cnc(C)c1C", "note": "[Compound 31, 6-chloro-N-(6-(4,5-dimethyl-1H-imidazol-1-yl)-5-methoxypyridin-3-yl)phthalazin-1-amine phosphoric acid salt]", "pIC50": 4.15},
      {"compound": "Clc1ccc2c(N/N=C/c3ccc(-n4ccnc4)cc3)ccnc2c1", "note": "[Compound 38, 4-(2-(4-(1H-imidazol-1-yl)benzylidene)hydrazineyl)-7-chloroquinoline dihydrochloride]", "pIC50": 4.63},
      {"compound": "Cc1ncn(-c2ccc(Nc3ncnc4cc(Cl)ccc34)cn2)c1C", "note": "[Compound 25, 7-chloro-N-(6-(4,5-dimethyl-1H-imidazol-1-yl)pyridin-3-yl)quinazolin-4-amine]", "pIC50": 4.66},
      {"compound": "Clc1ccc2c(N/N=C/c3ccc(-n4ccnc4)nc3)ccnc2c1", "note": "[Compound 14, (E)-4-(2-((6-(1H-imidazol-1-yl)pyridin-3-yl)methylene)hydrazineyl)-7-chloroquinoline hydrochloride]", "pIC50": 4.56},
      {"compound": "Clc1ccc2c(Nc3ccc(-n4cncn4)nc3)ncnc2c1", "note": "[Compound 34, N-(6-(1H-1,2,4-triazol-1-yl)pyridin-3-yl)-7-chloroquinazolin-4-amine phosphoric acid salt]", "pIC50": 5.06},
      {"compound": "C/C(=N\\Nc1ncnc2cc(Cl)ccc12)c1ccc(-n2cnc(C)c2C)nc1", "note": "[Compound 16, 7-chloro-4-(2-(1-(6-(4,5-dimethyl-1H-imidazol-1-yl)pyridin-3-yl)ethylidene)hydrazineyl)quinazoline phosphate]", "pIC50": 5.00},
      {"compound": "COc1cc2nccc(N/N=C/c3ccc(-n4ccnc4)c(OC)c3)c2cc1OC", "note": "[Compound 13, (E)-4-(2-(4-(1H-imidazol-1-yl)-3-methoxybenzylidene)hydrazineyl)-6,7-dimethoxyquinoline phosphate]", "pIC50": 4.35},
      {"compound": "Cc1ncn(-c2ccc(/C=N\\Nc3ncnc4cc(Cl)ccc34)cn2)c1C", "note": "[Compound 15, 7-chloro-4-(2-((6-(4,5-dimethyl-1H-imidazol-1-yl)pyridin-3-yl)methylene)hydrazineyl)quinazoline hydrochloride]", "pIC50": 4.49}
    ]}
  ]
}
